Measurements taken from patent publication US8754130B2, “Compositions of dibromomalonamide and their use as biocides” (Dow Global Technologies LLC, priority 2009, dated 2014).
Like-named read-outs stand apart in the source and are kept apart here.

Tests used:
[1] = tested on: consortium of bacteria: mixture of Pseudomonas aeruginosa, Klebsiella pneumoniae, Staphylococcus aureus, and Bacillus subtilis; test: Growth inhibition assay (microtiter plate-based synergy assay); type: cell-based; settings: 24 h; for I90 value (minimum concentration in which growth of the consortium is at least 90% less than controls): single active alone
[2] = as above; type: cell-based; settings: 24 h

SMILES: CCCCn1sc2ccccc2c1=O [BBIT, N-butyl-1,2-benzisothiazolin-3-one]
- % Inhibition of growth by BBIT ([1]; BBIT 6.25 mg/l alone): 32%
- % Inhibition of growth by BBIT ([1]; BBIT 12.5 mg/l alone): 24%
- % Inhibition of growth by BBIT ([1]; BBIT 25.0 mg/l alone): 49%
- I90 value (minimum concentration in which growth of the consortium is at least 90% less than controls) [1]: 50.0 mg/L

SMILES: O=c1[nH]sc2ccccc12 [BIT, 1,2-benzisothiazolin-3-one]
- % Inhibition of growth by BIT ([1]; BIT 3.91 mg/l alone): 17%
- % Inhibition of growth by BIT ([1]; BIT 7.81 mg/l alone): 46%
- I90 value (minimum concentration in which growth of the consortium is at least 90% less than controls) [1]: 15.63 mg/L

SMILES: Cn1sc(Cl)cc1=O [CMIT, 5-chloro-2-methyl-4-isothiazolin-3-one]
- inhibition at 0.39 µg/mL ([2]; CMIT 0.39 mg/l alone, read-out: % Inhibition of growth by CMIT): 10%
- inhibition at 0.78 µg/mL ([2]; CMIT 0.78 mg/l alone, read-out: % Inhibition of growth by CMIT): 97%
- inhibition at 1.56 µg/mL ([2]; CMIT 1.56 mg/l alone, read-out: % Inhibition of growth by CMIT): 96%
- inhibition at 3.13 µg/mL ([2]; CMIT 3.13 mg/l alone, read-out: % Inhibition of growth by CMIT): 98%
- inhibition at 6.25 µg/mL ([2]; CMIT 6.25 mg/l alone, read-out: % Inhibition of growth by CMIT): 97%
- inhibition at 12.5 µg/mL ([2]; CMIT 12.5 mg/l alone, read-out: % Inhibition of growth by CMIT): 96%
- inhibition at 25 µg/mL ([2]; CMIT 25.0 mg/l alone, read-out: % Inhibition of growth by CMIT): 98%
- I90 value (minimum concentration in which growth of the consortium is at least 90% less than controls) [1]: 0.78 mg/L

SMILES: NC(=O)C(Br)(Br)C(N)=O [DBMAL, 2,2-dibromomalonamide]
- inhibition at 0.39 µg/mL ([2]; Table 2, DBMAL 0.39 mg/l alone, read-out: % Inhibition of growth by DBMAL): 11%
- inhibition at 0.78 µg/mL ([2]; Table 2, DBMAL 0.78 mg/l alone, read-out: % Inhibition of growth by DBMAL): 13%
- inhibition at 1.56 µg/mL ([2]; Table 2, DBMAL 1.56 mg/l alone, read-out: % Inhibition of growth by DBMAL): 15%
- inhibition at 3.13 µg/mL ([2]; Table 2, DBMAL 3.13 mg/l alone, read-out: % Inhibition of growth by DBMAL): 23%
- inhibition at 6.25 µg/mL ([2]; Table 2, DBMAL 6.25 mg/l alone, read-out: % Inhibition of growth by DBMAL): 0%
- inhibition at 12.5 µg/mL ([2]; Table 2, DBMAL 12.5 mg/l alone, read-out: % Inhibition of growth by DBMAL): 98%
- inhibition at 0.39 µg/mL ([2]; Table 4, DBMAL 0.39 mg/l alone, read-out: % Inhibition of growth by DBMAL): 6%
- inhibition at 0.78 µg/mL ([2]; Table 4, DBMAL 0.78 mg/l alone, read-out: % Inhibition of growth by DBMAL): 2%
- inhibition at 1.56 µg/mL ([2]; Table 4, DBMAL 1.56 mg/l alone, read-out: % Inhibition of growth by DBMAL): 1%
- inhibition at 6.25 µg/mL ([2]; Table 4, DBMAL 6.25 mg/l alone, read-out: % Inhibition of growth by DBMAL): 23%
- inhibition at 25 µg/mL ([2]; Table 4, DBMAL 25.0 mg/l alone, read-out: % Inhibition of growth by DBMAL): 100%
- inhibition at 0.39 µg/mL ([2]; Table 6, DBMAL 0.39 mg/l alone, read-out: % Inhibition of growth by DBMAL): 0%
- inhibition at 0.78 µg/mL ([2]; Table 6, DBMAL 0.78 mg/l alone, read-out: % Inhibition of growth by DBMAL): 6%
- inhibition at 3.13 µg/mL ([2]; Table 6, DBMAL 3.13 mg/l alone, read-out: % Inhibition of growth by DBMAL): 11%
- inhibition at 6.25 µg/mL ([2]; Table 6, DBMAL 6.25 mg/l alone, read-out: % Inhibition of growth by DBMAL): 28%
- inhibition at 12.5 µg/mL ([2]; Table 6, DBMAL 12.5 mg/l alone, read-out: % Inhibition of growth by DBMAL): 100%
- inhibition at 25 µg/mL ([2]; Table 6, DBMAL 25.0 mg/l alone, read-out: % Inhibition of growth by DBMAL): 100%
- inhibition at 0.39 µg/mL ([2]; Table 8, DBMAL 0.39 mg/l alone, read-out: % Inhibition of growth by DBMAL): 3%
- inhibition at 0.78 µg/mL ([2]; Table 8, DBMAL 0.78 mg/l alone, read-out: % Inhibition of growth by DBMAL): 1%
- inhibition at 1.56 µg/mL ([2]; Table 8, DBMAL 1.56 mg/l alone, read-out: % Inhibition of growth by DBMAL): 0%
- inhibition at 3.13 µg/mL ([2]; Table 8, DBMAL 3.13 mg/l alone, read-out: % Inhibition of growth by DBMAL): 8%
- inhibition at 6.25 µg/mL ([2]; Table 8, DBMAL 6.25 mg/l alone, read-out: % Inhibition of growth by DBMAL): 45%
- inhibition at 12.5 µg/mL ([2]; Table 8, DBMAL 12.5 mg/l alone, read-out: % Inhibition of growth by DBMAL): 100%
- inhibition at 25 µg/mL ([2]; Table 8, DBMAL 25.0 mg/l alone, read-out: % Inhibition of growth by DBMAL): 99%
- inhibition at 0.39 µg/mL ([2]; Table 10, DBMAL 0.39 mg/l alone, read-out: % Inhibition of growth by DBMAL): 3%
- inhibition at 0.78 µg/mL ([2]; Table 10, DBMAL 0.78 mg/l alone, read-out: % Inhibition of growth by DBMAL): 0%
- inhibition at 1.56 µg/mL ([2]; Table 10, DBMAL 1.56 mg/l alone, read-out: % Inhibition of growth by DBMAL): 1%
- inhibition at 3.13 µg/mL ([2]; Table 10, DBMAL 3.13 mg/l alone, read-out: % Inhibition of growth by DBMAL): 0%
- inhibition at 6.25 µg/mL ([2]; Table 10, DBMAL 6.25 mg/l alone, read-out: % Inhibition of growth by DBMAL): 44%
- inhibition at 12.5 µg/mL ([2]; Table 10, DBMAL 12.5 mg/l alone, read-out: % Inhibition of growth by DBMAL): 100%
- inhibition at 25 µg/mL ([2]; Table 10, DBMAL 25.0 mg/l alone, read-out: % Inhibition of growth by DBMAL): 100%
- inhibition at 0.39 µg/mL ([2]; Table 12, DBMAL 0.39 mg/l alone, read-out: % Inhibition of growth by DBMAL): 3%
- inhibition at 0.78 µg/mL ([2]; Table 12, DBMAL 0.78 mg/l alone, read-out: % Inhibition of growth by DBMAL): 0%
- inhibition at 1.56 µg/mL ([2]; Table 12, DBMAL 1.56 mg/l alone, read-out: % Inhibition of growth by DBMAL): 1%
- inhibition at 3.13 µg/mL ([2]; Table 12, DBMAL 3.13 mg/l alone, read-out: % Inhibition of growth by DBMAL): 0%
- inhibition at 6.25 µg/mL ([2]; Table 12, DBMAL 6.25 mg/l alone, read-out: % Inhibition of growth by DBMAL): 44%
- inhibition at 12.5 µg/mL ([2]; Table 12, DBMAL 12.5 mg/l alone, read-out: % Inhibition of growth by DBMAL): 100%
- inhibition at 25 µg/mL ([2]; Table 12, DBMAL 25.0 mg/l alone, read-out: % Inhibition of growth by DBMAL): 100%
- inhibition at 0.39 µg/mL ([2]; Table 14, DBMAL 0.39 mg/l alone, read-out: % Inhibition of growth by DBMAL): 3%
- inhibition at 0.78 µg/mL ([2]; Table 14, DBMAL 0.78 mg/l alone, read-out: % Inhibition of growth by DBMAL): 0%
- inhibition at 1.56 µg/mL ([2]; Table 14, DBMAL 1.56 mg/l alone, read-out: % Inhibition of growth by DBMAL): 0%
- inhibition at 3.13 µg/mL ([2]; Table 14, DBMAL 3.13 mg/l alone, read-out: % Inhibition of growth by DBMAL): 0%
- inhibition at 6.25 µg/mL ([2]; Table 14, DBMAL 6.25 mg/l alone, read-out: % Inhibition of growth by DBMAL): 34%
- inhibition at 12.5 µg/mL ([2]; Table 14, DBMAL 12.5 mg/l alone, read-out: % Inhibition of growth by DBMAL): 93%
- inhibition at 25 µg/mL ([2]; Table 14, DBMAL 25.0 mg/l alone, read-out: % Inhibition of growth by DBMAL): 100%

SMILES: Cn1sc2ccccc2c1=O [MBIT, N-methyl-1,2-benzisothiazolin-3-one]
- % Inhibition of growth by MBIT ([1]; MBIT 0.78 mg/l alone): 16%
- % Inhibition of growth by MBIT ([1]; MBIT 1.56 mg/l alone): 13%
- % Inhibition of growth by MBIT ([1]; MBIT 6.25 mg/l alone): 26%
- % Inhibition of growth by MBIT ([1]; MBIT 12.5 mg/l alone): 53%
- % Inhibition of growth by MBIT ([1]; MBIT 25.0 mg/l alone): 23%
- % Inhibition of growth by MBIT ([1]; MBIT 50.0 mg/l alone): 67%
- I90 value (minimum concentration in which growth of the consortium is at least 90% less than controls) [1]: 100.0 mg/L

SMILES: Cn1sccc1=O [MIT, 2-methyl-4-isothiazolin-3-one]
- inhibition at […] ([2]; MIT 0.19 mg/l alone): 0%
- inhibition at 0.39 µg/mL ([2]; MIT 0.39 mg/l alone, read-out: % Inhibition of growth by MIT): 0%
- inhibition at 0.78 µg/mL ([2]; MIT 0.78 mg/l alone, read-out: % Inhibition of growth by MIT): 0%
- inhibition at 1.56 µg/mL ([2]; MIT 1.56 mg/l alone, read-out: % Inhibition of growth by MIT): 6%
- inhibition at 3.13 µg/mL ([2]; MIT 3.13 mg/l alone, read-out: % Inhibition of growth by MIT): 6%
- inhibition at 6.25 µg/mL ([2]; MIT 6.25 mg/l alone, read-out: % Inhibition of growth by MIT): 16%
- inhibition at 12.5 µg/mL ([2]; MIT 12.5 mg/l alone, read-out: % Inhibition of growth by MIT): 38%
- inhibition at 25 µg/mL ([2]; MIT 25.0 mg/l alone, read-out: % Inhibition of growth by MIT): 96%
- I90 value (minimum concentration in which growth of the consortium is at least 90% less than controls) [1]: 25 mg/L

SMILES: CCCCCCCCn1sccc1=O [OIT, 2-n-octyl-4-isothiazolin-3-one]
- inhibition at 3.91 µg/mL ([2]; OIT 3.91 mg/l alone): 0%
- inhibition at 7.81 µg/mL ([2]; OIT 7.81 mg/l alone): 7%
- inhibition at 15.63 µg/mL ([2]; OIT 15.63 mg/l alone): 24%
- inhibition at 31.25 µg/mL ([2]; OIT 31.25 mg/l alone): 43%
- inhibition at 62.5 µg/mL ([2]; OIT 62.5 mg/l alone): 64%
- inhibition at 125 µg/mL ([2]; OIT 125.0 mg/l alone): 100%
- inhibition at 250 µg/mL ([2]; OIT 250.0 mg/l alone): 100%
- inhibition at 500 µg/mL ([2]; OIT 500.0 mg/l alone): 100%
- I90 value (minimum concentration in which growth of the consortium is at least 90% less than controls) [1]: 125 mg/L
